This passage reports EC50 results from BindingDB's records for doi:10.1016/j.bmcl.2006.03.080 (University of Siena, 2006).

Some results are limits rather than exact numbers.

The EC50 is the concentration at which the effect is half-maximal. High values mean weaker potency, low ones greater potency.

Assay [1] can be described thus: Antiviral activity against HIV1 IRLL98 in MT4 cells by MTT assay. (Tetrazolium assays rely on reduction of a dye to a coloured formazan, in cell work by metabolically active cells.)
Assay [2] is described as follows: Antiviral activity against HIV1 Y188L mutant in MT4 cells by MTT assay.
Assay [3] can be described thus: Antiviral activity against HIV1 K103N mutant in MT4 cells by MTT assay.
Assay [4] can be described thus: Antiviral activity against HIV1 Y181C mutant in MT4 cells by MTT assay.
The nature of assay [5]: Antiviral activity against wild type HIV1 NL4-3 in MT4 cells by MTT assay.

With `COc1ccc(Sc2nc(Cc3c(Cl)cccc3Cl)c(C)c(=O)[nH]2)cn1`, the EC50 in assay [1] is 8.68 µM; in assay [2], more than 61.3 µM; in assay [3], more than 61.7 µM; in assay [4] it was 6.52 µM; in assay [5], 2.72 µM.

On to `Cc1c(Cc2c(Cl)cccc2Cl)nc(Sc2ccc(F)cc2F)[nH]c1=O`, for which the EC50 in assay [1] was 44.7 µM; in assay [2] it was more than 60.5 µM; in assay [3], more than 60.5 µM; in assay [5], 3.36 µM.

Take `Cc1c(Cc2c(F)cccc2F)nc(Sc2ccc(F)cc2F)[nH]c1=O`: the EC50 in assay [1] is 25.8 µM; in assay [2] it was more than 65.8 µM; in assay [3], more than 65.8 µM; in assay [5], 0.31 µM.

As for `COc1ccc(Sc2nc(Cc3c(F)cccc3F)c(C)c(=O)[nH]2)cc1`, the EC50 in assay [1] is more than 57.5 µM; in assay [2], more than 57.5 µM; in assay [3], more than 57.5 µM; in assay [5] it was 0.67 µM.

As for `Cc1cn([C@H]2C[C@H](N=[N+]=[N-])[C@@H](CO)O2)c(=O)[nH]c1=O` [1-((2R,4S,5S)-4-Azido-5-hydroxymethyl-tetrahydro-furan-2-yl)-5-methyl-1H-pyrimidine-2,4-dione], the EC50 in assay [1] worked out at 0.008 µM; in assay [2], 0.003 µM; in assay [3], 0.003 µM.

On to `Cc1c(Cc2c(Cl)cccc2Cl)nc(Sc2ccc(C#N)cc2)[nH]c1=O`, for which the EC50 is more than 27.6 µM in assay [1]; more than 27.6 µM in assay [2]; more than 27.6 µM in assay [3]; 5.1 µM in assay [4]; 2.49 µM in assay [5].

`Cc1c(Cc2c(F)cccc2F)nc(Sc2ccc(Cl)cc2)[nH]c1=O`: the EC50 in assay [1] is more than 66.1 µM; in assay [2] it was more than 66.1 µM; in assay [3] it was 8.01 µM; in assay [5] it was 0.1 µM.

With `Cc1c(Cc2c(F)cccc2F)nc(Sc2ccccc2)[nH]c1=O`, the EC50 is 16.7 µM in assay [1], more than 72.7 µM in assay [2], 42.5 µM in assay [3] and 0.09 µM in assay [5].

Regarding `COc1ccc(Sc2nc(Cc3c(Cl)cccc3Cl)c(C)c(=O)[nH]2)cc1`, the EC50 in assay [1] is more than 61.4 µM; in assay [2] it was more than 61.4 µM; in assay [3], more than 61.4 µM; in assay [4], more than 61.4 µM; in assay [5], 26.5 µM.

Take `Cc1c(Cc2c(Cl)cccc2Cl)nc(Sc2ccccc2)[nH]c1=O`: the EC50 was 4.91 µM in assay [1]; more than 66.3 µM in assay [2]; more than 66.3 µM in assay [3]; 12.1 µM in assay [4]; 1.8 µM in assay [5].
